# From US10736883B2, “Triazole furan compounds as agonists of the APJ receptor” (AMGEN INC., priority 2016, dated 2020)
# Biological target: APJ receptor (Homo sapiens (Human), UniProt P35414)
# Experiment: [35S]GTPγS binding assay on membranes from CHO cells stably expressing human APJ receptor
# Type: biochemical
# Settings: membranes of CHO cells stably expressing human APJ receptor, means of several independent experiments, read-out: Activity hAPJ SPA EC50 IP
# Summary of the method: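 EC50 values were obtained by non-linear regression of [35S]GTPγS (0.2 nM) binding after 90 min at RT, with nonspecific binding defined by 100 μM GTPγS. Reactions used human APJ–expressing CHO cell membranes on WGA PS beads in HEPES pH 7.5 buffer with 5 mM MgCl2, 200 mM NaCl, 3 μM GDP and 0.1% BSA.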
# Chain of APJ receptor (P35414 whole entry): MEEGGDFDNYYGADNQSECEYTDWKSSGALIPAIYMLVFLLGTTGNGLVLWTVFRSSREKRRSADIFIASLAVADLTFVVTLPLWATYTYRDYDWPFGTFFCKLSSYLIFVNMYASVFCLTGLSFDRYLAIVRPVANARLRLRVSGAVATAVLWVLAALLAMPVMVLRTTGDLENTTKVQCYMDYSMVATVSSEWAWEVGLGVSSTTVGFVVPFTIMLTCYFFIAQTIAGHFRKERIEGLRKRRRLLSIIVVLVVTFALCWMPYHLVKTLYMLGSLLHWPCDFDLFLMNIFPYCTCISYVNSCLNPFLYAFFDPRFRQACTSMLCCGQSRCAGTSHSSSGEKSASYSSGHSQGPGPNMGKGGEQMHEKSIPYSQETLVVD
row,SMILES,EC50
1,"COc1cccc(OC)c1-n1c(NS(=O)(=O)[C@@H]2CCC[C@H]2c2ncc(F)cn2)nnc1-c1ccco1 (single isomer, unassigned) [Example 104.0, (1R,2S)—N-(4-(2,6-Dimethoxyphenyl)-5-(2-furanyl)-4H-1,2,4-triazol-3-yl)-2-(5-fluoro-2-pyrimidinyl)cyclopentanesulfonamide or (1S,2R)—N-(4-(2,6-dimethoxyphenyl)-5-(2-furanyl)-4H-1,2,4-triazol-3-yl)-2-(5-fluoro-2-pyrimidinyl)cyclopentanesulfonamide]",22 nM
2,"COc1cccc(OC)c1-n1c(NS(=O)(=O)[C@@H](C)[C@@H](O)c2ccc(C#N)cn2)nnc1-c1ccc(C)o1 (single isomer, unassigned) [Example 10.0, (1S,2S)-1-(5-cyano-2-pyridinyl)-N-(4-(2,6-dimethoxyphenyl)-5-(5-methyl-2-furanyl)-4H-1,2,4-triazol-3-yl)-1-hydroxy-2-propanesulfonamide or (1R,2R)-1-(5-cyano-2-pyridinyl)-N-(4-(2,6-dimethoxyphenyl)-5-(5-methyl-2-furanyl)-4H-1,2,4-triazol-3-yl)-1-hydroxy-2-propanesulfonamide]",0.11 nM
3,"COc1cccc(OC)c1-n1c(NS(=O)(=O)C[C@@](C)(F)c2ncc(C#N)cn2)nnc1-c1ccc(C)o1 (racemic) [Example 229.0, (2S)-2-(5-Cyano-2-pyrimidinyl)-N-(4-(2,6-dimethoxyphenyl)-5-(5-methyl-2-furanyl)-4H-1,2,4-triazol-3-yl)-2-fluoro-1-propanesulfonamide and (2R)-2-(5-cyano-2-pyrimidinyl)-N-(4-(2,6-dimethoxyphenyl)-5-(5-methyl-2-furanyl)-4H-1,2,4-triazol-3-yl)-2-fluoro-1-propanesulfonamide]",0.39 nM
4,"COc1cccc(OC)c1-n1c(NS(=O)(=O)[C@@H](C)[C@H](OC)c2cn3ccccc3n2)nnc1-c1ccc(C)o1 (single isomer, unassigned) [Example 263.0, (1R,2S)—N-(4-(2,6-Dimethoxyphenyl)-5-(5-methyl-2-furanyl)-4H-1,2,4-triazol-3-yl)-1-imidazo[1,2-a]pyridin-2-yl-1-methoxy-2-propanesulfonamide or (1S,2R)—N-(4-(2,6-dimethoxyphenyl)-5-(5-methyl-2-furanyl)-4H-1,2,4-triazol-3-yl)-1-imidazo[1,2-a]pyridin-2-yl-1-methoxy-2-propanesulfonamide]",0.086 nM
5,"COc1cccc(OC)c1-n1c(NS(=O)(=O)c2cccc([C@@H](C)O)c2)nnc1-c1ccc(C)o1 (single isomer, unassigned) [Example 411.0, (R)-N-(4-(2,6-dimethoxyphenyl)-5-(5-methylfuran-2-yl)-4H-1,2,4-triazol-3-yl)-3-(1-hydroxyethyl)benzenesulfonamide or (S)-N-(4-(2,6-dimethoxyphenyl)-5-(5-methylfuran-2-yl)-4H-1,2,4-triazol-3-yl)-3-(1-hydroxyethyl)benzenesulfonamide]",32 nM
6,"COc1cccc(OC)c1-n1c(NS(=O)(=O)C[C@H](O)c2ccc(C#N)cn2)nnc1-c1ccc(C)o1 (single isomer, unassigned) [Example 58.0, (2R)-2-(5-cyano-2-pyridinyl)-N-(4-(2,6-dimethoxyphenyl)-5-(5-methyl-2-furanyl)-4H-1,2,4-triazol-3-yl)-2-hydroxyethanesulfonamide or (2S)-2-(5-cyano-2-pyridinyl)-N-(4-(2,6-dimethoxyphenyl)-5-(5-methyl-2-furanyl)-4H-1,2,4-triazol-3-yl)-2-hydroxyethanesulfonamide]",0.13 nM
7,"COc1cccc(OC)c1-n1c(NS(=O)(=O)[C@H](C)Cc2ccc(Br)cn2)nnc1-c1ccco1 (single isomer, unassigned) [Example 23.0, (2R)-1-(5-bromo-2-pyridinyl)-N-(4-(2,6-dimethoxyphenyl)-5-(2-furanyl)-4H-1,2,4-triazol-3-yl)-2-propanesulfonamide or (2S)-1-(5-bromo-2-pyridinyl)-N-(4-(2,6-dimethoxyphenyl)-5-(2-furanyl)-4H-1,2,4-triazol-3-yl)-2-propanesulfonamide]",0.36 nM
8,"COc1cccc(OC)c1-n1c(NS(=O)(=O)[C@H](C)Cc2ccc(C)nn2)nnc1-c1ccc(C)o1 (single isomer, unassigned) [Example 31.0, (2R)—N-(4-(2,6-dimethoxyphenyl)-5-(5-methyl-2-furanyl)-4H-1,2,4-triazol-3-yl)-1-(6-methyl-3-pyridazinyl)-2-propanesulfonamide or (2S)—N-(4-(2,6-dimethoxyphenyl)-5-(5-methyl-2-furanyl)-4H-1,2,4-triazol-3-yl)-1-(6-methyl-3-pyridazinyl)-2-propanesulfonamide]",1.9 nM
9,"COc1cccc(OC)c1-n1c(NS(=O)(=O)c2cccc([C@H](C)O)c2)nnc1-c1ccc(C)o1 (single isomer, unassigned) [Example 410.0, (R)-N-(4-(2,6-dimethoxyphenyl)-5-(5-methylfuran-2-yl)-4H-1,2,4-triazol-3-yl)-3-(1-hydroxyethyl)benzenesulfonamide or (S)-N-(4-(2,6-dimethoxyphenyl)-5-(5-methylfuran-2-yl)-4H-1,2,4-triazol-3-yl)-3-(1-hydroxyethyl)benzenesulfonamide]",11 nM
10,"COc1cccc(OC)c1-n1c(NS(=O)(=O)[C@H](C)Cc2cnc(C)cn2)nnc1-c1ccco1 (single isomer, unassigned) [Example 32.0, (2R)—N-(4-(2,6-dimethoxyphenyl)-5-(2-furanyl)-4H-1,2,4-triazol-3-yl)-1-(5-methyl-2-pyrazinyl)-2-propanesulfonamide or (2S)—N-(4-(2,6-dimethoxyphenyl)-5-(2-furanyl)-4H-1,2,4-triazol-3-yl)-1-(5-methyl-2-pyrazinyl)-2-propanesulfonamide]",2.3 nM
11,"COc1cccc(OC)c1-n1c(NS(=O)(=O)CCc2ncc(C)cn2)nnc1-c1ccco1 [Example 39.0, N-(4-(2,6-dimethoxyphenyl)-5-(2-furanyl)-4H-1,2,4-triazol-3-yl)-2-(5-methyl-2-pyrimidinyl)ethanesulfonamide]",6.6 nM
12,"COc1cccc(OC)c1-n1c(NS(=O)(=O)[C@H](C)Cc2ncc(Cl)cn2)nnc1-c1ccco1 (single isomer, unassigned) [Example 37.0, (2R)-1-(5-chloro-2-pyrimidinyl)-N-(4-(2,6-dimethoxyphenyl)-5-(2-furanyl)-4H-1,2,4-triazol-3-yl)-2-propanesulfonamide or (2S)-1-(5-chloro-2-pyrimidinyl)-N-(4-(2,6-dimethoxyphenyl)-5-(2-furanyl)-4H-1,2,4-triazol-3-yl)-2-propanesulfonamide]",3.6 nM
13,"COc1cccc(OC)c1-n1c(NS(=O)(=O)[C@H](C)[C@@H](O)c2coc(C)n2)nnc1-c1ccc(C)o1 (single isomer, unassigned) [Example 303.0, (1R,2S)—N-(4-(2,6-Dimethoxyphenyl)-5-(5-methyl-2-furanyl)-4H-1,2,4-triazol-3-yl)-1-hydroxy-1-(2-methyl-1,3-oxazol-4-yl)-2-propanesulfonamide or (1S,2R)—N-(4-(2,6-dimethoxyphenyl)-5-(5-methyl-2-furanyl)-4H-1,2,4-triazol-3-yl)-1-hydroxy-1-(2-methyl-1,3-oxazol-4-yl)-2-propanesulfonamide]",13 nM
